Source: publication PMC7725003, “Systematically Studying the Optimal Amino Acid Distribution Patterns of the Amphiphilic Structure by Using the Ultrashort Amphiphiles” (Frontiers in Microbiology, 2020)
Read-outs that look alike come from different tables or passages of the source. Where no end group is shown, it is not given here.

Experiments:
[1] = test system: E. coli 25922; format: cell-based, Escherichia coli
Protocol: (§1) The antimicrobial activities of the peptides were measured using a method adapted from the National Committee for Clinical Laboratory Standards (NCCLS) with some modifications ([Chou et al., 2016]). The specific procedure for these assays has been previously described. In brief, the bacterial cells were grown to a mid-logarithmic phase and diluted in MHB to an ultimate concentration of 0.5–1 × 10^6 CFU mL^–1. Subsequently, the peptides were consecutively diluted in a 0.2% BSA solution and then added to a bacterial solution in a 96-well plate at identical volumes. After incubation for 24 h at 37°C, the MICs were determined to be the lowest peptide concentration that inhibited 95% of the bacterial growth by monitoring the absorbance at 492 nm using a microplate reader. Subsequently, 50 μL of each incubation mixture was further transferred to agar plates and incubated overnight. The minimum bactericidal concentrations (MBCs) were determined as the lowest peptide concentration that killed greater than 99.9% of the bacterial cells. Every assay was reproduced more than 3 times.

[2] = test system: E. coli UB1005; format: cell-based, Escherichia coli
Protocol: as §1

[3] = test system: E. coli O78; format: cell-based, Escherichia coli
Protocol: as §1

[4] = test system: Gram-negative bacteria
Protocol: (§2) The antimicrobial activity of AMPs is the most decisive index for evaluating the clinical application of antimicrobial drugs.
as §1, with “The minimum bactericidal concentrations (MBCs) were determined as the lowest peptide concentration that killed greater than 99.9% of the bacterial cells.” left out

[5] = test system: Gram-positive bacteria
Protocol: as §2
as §1, with “The minimum bactericidal concentrations (MBCs) were determined as the lowest peptide concentration that killed greater than 99.9% of the bacterial cells.” left out

[6] = test system: S. aureus 29213; assay: Salt sensitivity assay (MIC); format: cell-based, Staphylococcus aureus; details: for MIC, FeCl3: 4 μM FeCl3; for MIC, NH4Cl: 6 μM NH4Cl; for MIC, ZnCl2: 8 μM ZnCl2; for MIC, MgCl2: 1 mM MgCl2; for MIC, CaCl2: 2 mM CaCl2; for MIC, KCl: 4.5 mM KCl; for MIC, NaCl: 150 mM NaCl; for MIC, Control: no added salt, three independent assays
Protocol: as §1
(§3) The salt sensitivities of the peptides were determined. E. coli ATCC 25922 and S. aureus ATCC 29213 were incubated in the presence of various ultimate concentrations of physiological salts (150 mM NaCl, 4.5 mM KCl, 6 μM NH4Cl, 8 μM ZnCl2, 1 mM MgCl2, 2mM CaCl2, and 4 μM FeCl3) according to our previous protocol ([Yang et al., 2019]). These tests were performed under the MICs, and three independent assays were performed.

[7] = test system: P. aeruginosa 27853; format: cell-based, Pseudomonas aeruginosa
Protocol: as §1

[8] = test system: E. faecalis 29212; format: cell-based, Enterococcus faecalis
Protocol: as §1

[9] = test system: E. coli ATCC 25922; assay: Salt sensitivity assay (MIC); format: cell-based, Escherichia coli; details: for MIC, FeCl3: 4 μM FeCl3; for MIC, NH4Cl: 6 μM NH4Cl; for MIC, ZnCl2: 8 μM ZnCl2; for MIC, MgCl2: 1 mM MgCl2; for MIC, CaCl2: 2 mM CaCl2; for MIC, KCl: 4.5 mM KCl; for MIC, NaCl: 150 mM NaCl; for MIC, Control: no added salt, three independent assays
Protocol: as §1, §3

[10] = test system: S. typhimurium 14028; format: cell-based, Salmonella typhimurium
Protocol: as §1

[11] = test system: S. typhimurium 7731; format: cell-based, Salmonella typhimurium
Protocol: as §1

[12] = test system: Gram-negative bacteria; details: geometric mean of MBCs, 9 Gram-negative strains (Table 2)
[13] = test system: Gram-positive bacteria; details: geometric mean of MBCs, 7 Gram-positive strains (Table 2)
[14] = test system: Listeria monocytogenes CGMCC 1.1075; format: cell-based
Protocol: as §1

[15] = test system: B. subtilis 63501; format: cell-based, Bacillus subtilis
Protocol: as §1

[16] = test system: S. aureus 25923; format: cell-based, Staphylococcus aureus
Protocol: as §1

[17] = test system: S. aureus 29213; format: cell-based, Staphylococcus aureus
Protocol: as §1

[18] = test system: S. epidermidis 12228; format: cell-based, Staphylococcus epidermidis
Protocol: as §1

[19] = test system: S. pullorum 7913; format: cell-based, Salmonella pullorum
Protocol: as §1

[20] = test system: MRSA 43300; format: cell-based, methicillin-resistant S. aureus
Protocol: as §1

[21] = test system: E. coli K99
Protocol: as §1, with “The minimum bactericidal concentrations (MBCs) were determined as the lowest peptide concentration that killed greater than 99.9% of the bacterial cells.” left out

[22] = test system: E. coli K88
Protocol: as §1, with “The minimum bactericidal concentrations (MBCs) were determined as the lowest peptide concentration that killed greater than 99.9% of the bacterial cells.” left out

[23] = test system: all of the tested bacterial strains; assay: Geometric mean of MICs, all tested bacterial strains; format: cell-based
Text: The antimicrobial activity of AMPs is the most decisive index for evaluating the clinical application of antimicrobial drugs. Many antimicrobial agents inhibit bacterial growth rather than kill the bacteria quickly, and long-term infections are pathogens that are not completely killed, which results in bacterial severe drug resistance. […] The geometric mean (GM) values of the MICs/MBCs of the two series across all of the tested bacterial strains are represented in Table 3, which depicts the average bacteriostatic/bactericidal level of a peptide.
as §1

[24] = MHB, 24 h 37°C, 95% growth inhibition
[25] = value in brackets, >99.9% of cells killed
[26] = geometric mean of MICs (Table 3)
[27] = therapeutic index TI = MHC/GM MIC

Question: Which results are given for Polymyxin B [reference compound]?
Answer: MIC ([1]; MHB, 0.5–1 × 10^6 CFU/mL, 24 h 37°C, lowest concentration inhibiting 95% of growth (A492), more than 3 repeats): 4 µM; MBC ([1]; value in brackets, agar plating, lowest concentration killing >99.9% of cells): 8 µM; MIC [2, 24]: 2 µM; MBC [2, 25]: 4 µM; MIC [3, 24]: 2 µM; MBC [3, 25]: 4 µM; GM MIC ([4]; geometric mean of MICs, 9 Gram-negative strains (Table 2)): 2.94 µM; GM MIC ([5]; geometric mean of MICs, 7 Gram-positive strains (Table 2)): 4.42 µM; MIC, FeCl3 [6]: 16 µM; MIC, NH4Cl [6]: 16 µM; MIC, ZnCl2 [6]: 16 µM; MIC, MgCl2 [6]: 16 µM; MIC, CaCl2 [6]: 64 µM; MIC, KCl [6]: 16 µM; MIC, NaCl [6]: 32 µM; MIC, Control [6]: 16 µM; MIC [7, 24]: 8 µM; MBC [7, 25]: 16 µM; MIC [8, 24]: 32 µM; MBC [8, 25]: > 64 µM; MIC, FeCl3 [9]: 4 µM; MIC, NH4Cl [9]: 4 µM; MIC, ZnCl2 [9]: 4 µM; MIC, MgCl2 [9]: 4 µM; MIC, CaCl2 [9]: 8 µM; MIC, KCl [9]: 8 µM; MIC, NaCl [9]: 8 µM; MIC, Control [9]: 4 µM; MIC [10, 24]: 4 µM; MBC [10, 25]: 8 µM; MIC [11, 24]: 2 µM; MBC [11, 25]: 4 µM; GM MBC [12]: 5.88 µM; GM MBC [13]: 10.77 µM; MIC [14, 24]: 32 µM; MBC [14, 25]: > 64 µM; MIC [15, 24]: 1 µM; MBC [15, 25]: 2 µM; MIC [16, 24]: 2 µM; MBC [16, 25]: 4 µM; MIC [17, 24]: 4 µM; MBC [17, 25]: 8 µM; MIC [18, 24]: 2 µM; MBC [18, 25]: 4 µM; MIC [19, 24]: 4 µM; MBC [19, 25]: 8 µM; MIC [20, 24]: 2 µM; MBC [20, 25]: 4 µM; MIC [21, 24]: 2 µM; MBC [21, 25]: 4 µM; MIC [22, 24]: 2 µM; MBC [22, 25]: 4 µM

Question: For RRWWWWRRW-NH2 [W7], which MBC ([1]; 25922, 24 h) is on record?
Answer: Its MBC is 8 µM.

Question: What about the MIC ([1]; 25922, 24 h) of the same substance?
Answer: The MIC was 4 µM.

Question: What about the MBC ([2]; UB1005, 24 h) of the same substance?
Answer: The MBC was 8 µM.

Question: What about the MIC ([2]; UB1005, 24 h) of the same substance?
Answer: Its MIC is 4 µM.

Question: And the MBC ([3]; O78, 24 h)?
Answer: The MBC was 16 µM.

Question: And the MIC ([3]; O78, 24 h)?
Answer: The MIC was 8 µM.

Question: And the “GM, Gram-negative bacteria” value [4, 26]?
Answer: The value was 5.88 µM.

Question: And the “TI, Gram-negative bacteria” value [4, 27]?
Answer: Its value is 43.54.

Question: What about the “GM, Gram-positive bacteria” value [5, 26] of the same substance?
Answer: Its value is 2.44 µM.

Question: What about the “TI, Gram-positive bacteria” value [5, 27] of the same substance?
Answer: Its value is 104.92.

Question: What about the MIC, FeCl3 [6] of the same substance?
Answer: Its MIC, FeCl3 is 8 µM.

Question: What about the MIC, NH4Cl [6] of the same substance?
Answer: Its MIC, NH4Cl is 4 µM.

Question: What about the MIC, ZnCl2 [6] of the same substance?
Answer: The MIC, ZnCl2 was 4 µM.

Question: And the MIC, MgCl2 [6]?
Answer: The MIC, MgCl2 was 4 µM.

Question: And the MIC, CaCl2 [6]?
Answer: The MIC, CaCl2 was 4 µM.

Question: And the MIC, KCl [6]?
Answer: Its MIC, KCl is 4 µM.

Question: What about the MIC, NaCl [6] of the same substance?
Answer: Its MIC, NaCl is 4 µM.

Question: And the MIC, Control [6]?
Answer: Its MIC, Control is 4 µM.

Question: What about the MBC ([7]; 27853, 24 h) of the same substance?
Answer: Its MBC is 32 µM.

Question: And the MIC ([7]; 27853, 24 h)?
Answer: The MIC was 4 µM.

Question: What about the MBC ([8]; 29212, 24 h) of the same substance?
Answer: The MBC was 16 µM.

Question: What about the MIC ([8]; 29212, 24 h) of the same substance?
Answer: The MIC was 8 µM.

Question: What about the MIC, FeCl3 [9] of the same substance?
Answer: The MIC, FeCl3 was 8 µM.

Question: What about the MIC, NH4Cl [9] of the same substance?
Answer: The MIC, NH4Cl was 4 µM.

Question: And the MIC, ZnCl2 [9]?
Answer: The MIC, ZnCl2 was 4 µM.

Question: And the MIC, MgCl2 [9]?
Answer: Its MIC, MgCl2 is 4 µM.

Question: What about the MIC, CaCl2 [9] of the same substance?
Answer: The MIC, CaCl2 was 8 µM.

Question: And the MIC, KCl [9]?
Answer: Its MIC, KCl is 8 µM.

Question: What about the MIC, NaCl [9] of the same substance?
Answer: Its MIC, NaCl is 8 µM.

Question: What about the MIC, Control [9] of the same substance?
Answer: The MIC, Control was 4 µM.

Question: And the MBC ([10]; 14028, 24 h)?
Answer: Its MBC is 16 µM.

Question: What about the MIC ([10]; 14028, 24 h) of the same substance?
Answer: Its MIC is 8 µM.

Question: And the MBC ([11]; 7731, 24 h)?
Answer: The MBC was 32 µM.

Question: What about the MIC ([11]; 7731, 24 h) of the same substance?
Answer: The MIC was 16 µM.

Question: And the “GM, All” value ([23]; geometric mean of MICs across all tested strains)?
Answer: The value was 4.00 µM.

Question: And the “TI, All” value [23, 27]?
Answer: The value was 64.00.

Question: And the MBC ([14]; CGMCC 1.1075, 24 h)?
Answer: Its MBC is 4 µM.

Question: And the MIC ([14]; CGMCC 1.1075, 24 h)?
Answer: Its MIC is 2 µM.

Question: And the MBC ([15]; 63501, 24 h)?
Answer: Its MBC is 2 µM.

Question: And the MIC ([15]; 63501, 24 h)?
Answer: Its MIC is 1 µM.

Question: And the MBC ([16]; 25923, 24 h)?
Answer: The MBC was 4 µM.

Question: What about the MIC ([16]; 25923, 24 h) of the same substance?
Answer: Its MIC is 2 µM.

Question: And the MBC ([17]; 29213, 24 h)?
Answer: The MBC was 8 µM.

Question: What about the MIC ([17]; 29213, 24 h) of the same substance?
Answer: The MIC was 4 µM.

Question: And the MBC ([18]; 12228, 24 h)?
Answer: Its MBC is 4 µM.

Question: And the MIC ([18]; 12228, 24 h)?
Answer: The MIC was 2 µM.

Question: What about the MBC ([19]; 7913, 24 h) of the same substance?
Answer: Its MBC is 8 µM.

Question: What about the MIC ([19]; 7913, 24 h) of the same substance?
Answer: Its MIC is 4 µM.

Question: And the MBC ([20]; 43300, 24 h)?
Answer: The MBC was 4 µM.

Question: What about the MIC ([20]; 43300, 24 h) of the same substance?
Answer: The MIC was 2 µM.
